# Patent US20130046003A1, “PHARMACEUTICAL COMPOSITIONS COMPRISING 4-BROMO-N-(IMIDAZOLIDIN-2-YLIDENE)-1H-BENZIMIDAZOL-5-AMINE FOR TREATING RETINAL DISEASES” (priority 2011, published 2013)
# Key:
# [1] = normal DB rabbits, intravenous route, 10-30 minutes post-dose
# Procedure: Rabbits were dosed with 4-bromo-N-(imidazolidin-2-ylidene)-1H-benzimidazol-5-amine through intravenous route. Spatial sweep visual evoked potential (sVEP) acuity was assessed with PowerDiva software version 1.8. Recordings were made bilaterally in conscious animals.
# [2] = rats, after an oral dose of brimonidine tartrate; cited from earlier work
# [3] = tested on: alpha 2-adrenergic receptor; settings: known from prior art; all three alpha-2 receptor subtypes; cited from earlier work
# [4] = tested on: retina damage caused by blue light; settings: rats, 1 mg/kg IP one hour before 4 hours blue light exposure (6100-6500 lux); OCT at 7 days post exposure; versus saline
# Procedure: Drugs were administered via intraperitoneal injection (IP) at a dose of 1 mg/kg one hour before blue light exposure.
# Twenty 4-month old male Sprague-Dawley rats (body weight 470-550 g) were used in this study. The animals were exposed to room light on a 12 hour lighV12 hour dark cycle before the experiment. All animals were dark adapted overnight (16-20 hours) before blue light exposure. Under the intensity of 6100-6500 lux, rats were exposed to blue light for 4 hours. After the blue light, rats were placed in the dark for another 3 days before returning to normal 12 hour light/12 hour dark. Ocular Coherence Tomography (OCT) measurement was performed at 7 days post blue light exposure.
SMILES,visual acuity (sVEP acuity) [1],amount found in urine [2],alpha 2-adrenergic receptor agonist activity [3],protection of the retina from damage caused by blue light (retinal thickness measured by OCT) [4]
Brc1c(N=C2NCCN2)ccc2[nH]cnc12 [4-bromo-N-(imidazolidin-2-ylidene)-1H-benzimidazol-5-amine],enhanced visual acuity,trace amounts,"potent alpha 2-adrenergic receptor pan agonist, activating all three alpha-2 receptor subtypes",
"Brc1c(N=C2NCCN2)ccc2nccnc12 [brimonidine, (5-bromo-quinoxalin-6-yl)-imidazolidin-2-ylidene-amine, reference compound]",,,,significantly reduced and protected the retina from the damage caused by blue light
